Each structure is given as a SMILES string.

These results are taken from patent US20140315886A1, “QUINAZOLINES AS THERAPEUTIC COMPOUNDS AND RELATED METHODS OF USE” (OTSUKA PHARMACEUTICAL CO., LTD., priority 2011, published 2014).

This assay concerns the target T1, purified STEP46 enzyme (Homo sapiens, UniProt P54829).
T1 sequence (P54829 197-565 limits assumed): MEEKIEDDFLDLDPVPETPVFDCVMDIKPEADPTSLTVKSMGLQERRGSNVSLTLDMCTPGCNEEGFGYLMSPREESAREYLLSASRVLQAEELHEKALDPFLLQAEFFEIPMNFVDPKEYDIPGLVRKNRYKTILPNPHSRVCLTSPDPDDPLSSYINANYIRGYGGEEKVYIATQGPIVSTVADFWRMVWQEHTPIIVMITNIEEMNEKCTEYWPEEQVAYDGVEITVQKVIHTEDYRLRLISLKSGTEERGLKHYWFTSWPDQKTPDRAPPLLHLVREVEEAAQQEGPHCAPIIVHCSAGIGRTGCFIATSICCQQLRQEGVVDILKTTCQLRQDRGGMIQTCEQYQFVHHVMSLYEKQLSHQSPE
Nature of the assay: STEP46 biochemical assay (DiFMUP fluorescence phosphatase assay). Particulars: DiFMUP 10 μM, read-out: STEP IC50. The method in brief:
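Purified human STEP46 preincubated 30 min at room temperature with compounds in Hepes/DTT/Brij35 buffer (2% DMSO final), then reacted with 10 μM DiFMUP for 90 min at 27°C; fluorescence read at 360/460 nm. IC50 from four-parameter fit; activation shown as negative % inhibition at 25, 50, 100 uM.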
Consider `CNc1nc(-c2cccnc2)nc2c(F)c(-c3ccc(F)c(C)c3)ccc12` [Compound 541], for which the IC50 is 1000 to 10000 nM. In the case of `CNc1nc(-c2cccnc2)nc2c(F)c(-c3ccc(F)cc3OC)ccc12` [Compound 543], the IC50 fell in the range of 1000 to 10000 nM. Consider `CNc1nc(-c2cccnc2)nc2c(F)c(-c3ccc(OC)c(F)c3)ccc12` [Compound 544], for which the IC50 is less than 1000 nM. Next, `CNc1nc(-c2cccnc2)nc2cc(-c3cccc(F)c3)c(F)cc12` [Compound 550]: 1000 to 10000 nM. Next, `CNc1nc(-c2cccnc2)nc2cc(-c3ccc(F)cc3F)c(F)cc12` [Compound 551]: 1000 to 10000 nM. Next, `CNc1nc(-c2cccnc2)nc2cc(-c3ccccc3F)c(F)cc12` [Compound 552]: 1000 to 10000 nM; `CNc1nc(-c2cccnc2)nc2cc(-c3ccc(F)cc3)c(F)cc12` [Compound 553]: 1000 to 10000 nM; `CNc1nc(-c2cccnc2)nc2cc(-c3cc(F)ccc3F)c(F)cc12` [Compound 554]: 1000 to 10000 nM. On to `CNc1nc(-c2cccnc2)nc2cc(-c3cc(F)cc(F)c3)c(F)cc12` [Compound 555], for which the IC50 was less than 1000 nM. Next, `CNc1nc(-c2cccnc2)nc2cc(-c3cccc(C#N)c3)c(F)cc12` [Compound 556]: 1000 to 10000 nM; `CNc1nc(-c2cccnc2)nc2cc(-c3cccc(F)c3F)c(F)cc12` [Compound 557]: 1000 to 10000 nM. Next, `CNc1nc(-c2cccnc2)nc2cc(-c3ccc(F)c(F)c3)c(F)cc12` [Compound 558]: 1000 to 10000 nM.

As to `CNc1nc(-c2cccnc2)nc2cc(-c3ccc(C#N)cc3)c(F)cc12` [Compound 559], the half-maximal inhibitory concentration (IC50) was 1000 to 10000 nM.

With `CNc1nc(-c2cccnc2)nc2c(F)cc(-c3cccc(F)c3)cc12` [Compound 563], the IC50 was in the range of 1000 to 10000 nM.

For the compound `CNc1nc(-c2cccnc2)nc2c(F)cc(-c3ccccc3OC)cc12` [Compound 566], the IC50 was greater than 10000 nM. Next, `CNc1nc(-c2cccnc2)nc2c(F)cc(-c3ccccc3C#N)cc12` [Compound 567]: less than 1000 nM; `CNc1nc(-c2cccnc2)nc2c(F)cc(-c3cc(F)cc(F)c3)cc12` [Compound 569]: 1000 to 10000 nM. Next, `CNc1nc(-c2cccnc2)nc2c(F)cc(-c3cccc(C#N)c3)cc12` [Compound 570]: less than 1000 nM; `CNc1nc(-c2cccnc2)nc2c(F)cc(-c3ccc(C#N)cc3)cc12` [Compound 571]: 1000 to 10000 nM; `CNc1nc(-c2cccnc2)nc2c(F)cc(-c3cc(F)ccc3F)cc12` [Compound 572]: 1000 to 10000 nM.

Consider `CNc1nc(-c2cccnc2)nc2c(F)cc(-c3ccc(OC)cc3)cc12` [Compound 573], for which the IC50 was in the range of 1000 to 10000 nM.

Consider `CNc1nc(-c2cccnc2)nc2c(F)cc(-c3cccc(OC)c3)cc12` [Compound 574], for which the IC50 was in the range of 1000 to 10000 nM.

With `CNc1nc(-c2cccnc2)nc2c(F)cc(-c3c(F)cccc3F)cc12` [Compound 575], the IC50 was 1000 to 10000 nM.

As for `CNc1nc(-c2cccnc2)nc2cc(F)c(-c3cccc(F)c3)cc12` [Compound 584], the IC50 is 1000 to 10000 nM. Next, `CNc1nc(-c2cccnc2)nc2cc(F)c(-c3ccc(F)cc3)cc12` [Compound 587]: 1000 to 10000 nM; `CNc1nc(-c2cccnc2)nc2cc(F)c(-c3cc(F)cc(F)c3)cc12` [Compound 588]: 1000 to 10000 nM; `CNc1nc(-c2cccnc2)nc2cc(F)c(-c3cccc(C#N)c3)cc12` [Compound 589]: 1000 to 10000 nM. Next, `CNc1nc(-c2cccnc2)nc2cc(F)c(-c3cccc(OC)c3)cc12` [Compound 590]: 1000 to 10000 nM; `CNc1nc(-c2cccnc2)nc2cc(F)c(-c3ccc(F)c(F)c3)cc12` [Compound 591]: less than 1000 nM. Regarding `CNc1nc(-c2cccnc2)nc2cc(F)c(-c3ccc(C#N)cc3)cc12` [Compound 592], the half-maximal inhibitory concentration (IC50) lay within 1000 to 10000 nM. Next, `CNc1nc(-c2cccnc2)nc2cc(F)c(-c3ccccc3OC)cc12` [Compound 593]: greater than 10000 nM; `CNc1nc(-c2cccnc2)nc2cc(F)c(-c3cccc(F)c3F)cc12` [Compound 594]: 1000 to 10000 nM. Next, `c1ccc(CNc2nc(-c3cccnc3)nc3ccc(-c4cccs4)cc23)nc1` [Compound 601]: 1000 to 10000 nM; `c1ccc(CNc2nc(-c3cccnc3)nc3ccc(-c4ccoc4)cc23)nc1` [Compound 602]: 1000 to 10000 nM. Next, `CC(Nc1nc(-c2cccnc2)nc2ccc(-c3ccccc3F)cc12)c1ccccc1` (centres unmarked) [Compound 603]: 1000 to 10000 nM; `CC(Nc1nc(-c2cccnc2)nc2ccc(-c3cccc(F)c3)cc12)c1ccccc1` (centres unmarked) [Compound 604]: 1000 to 10000 nM; `CC(Nc1nc(-c2cccnc2)nc2ccc(-c3ccc(F)cc3)cc12)c1ccccc1` (centres unmarked) [Compound 605]: 1000 to 10000 nM. Regarding `CC(Nc1nc(-c2cccnc2)nc2ccc(-c3cccc(F)c3F)cc12)c1ccccc1` (centres unmarked) [Compound 606], the IC50 was 1000 to 10000 nM.

Regarding `CC(Nc1nc(-c2cccnc2)nc2ccc(-c3ccc(F)cc3F)cc12)c1ccccc1` (centres unmarked) [Compound 607], the IC50 is 1000 to 10000 nM.

On to `COc1cc(-c2ccc(F)cc2F)cc2c(N3CC(OC)C3)nc(-c3cccnc3)nc12` [Compound 741], for which the IC50 lay within 1000 to 10000 nM. `CNc1nc(-c2cnccn2)nc2ccc(-c3ccc(F)cc3F)c(F)c12` [Compound 976]: the IC50 was 1000 to 10000 nM. Next, `CNc1nc(-c2cnccn2)nc2ccc(-c3ccc(F)c(F)c3)c(F)c12` [Compound 977]: 1000 to 10000 nM; `CNc1nc(-c2cnccn2)nc2ccc(-c3cc(F)cc(F)c3)c(F)c12` [Compound 980]: 1000 to 10000 nM; `CNc1nc(-c2cnccn2)nc2c(F)c(-c3ccc(F)cc3F)ccc12` [Compound 995]: 1000 to 10000 nM.
